For 32 molecules, mutagenic call and call results are on record in PubChem BioAssay AID1259408 (Genetic Toxicology Data Bank (GENE-TOX), 2018).

The source made the active and inactive calls. The rule behind the calls is not given here.

This data set concerns GENE-TOX genotoxicity assays, various organisms and cells. Put plainly: GENE-TOX mutagenicity studies. The note with it: for call: Assay Type: In vivo carcinogenicity studies.
Setting [1] is: Species/Cell Type: Salmonella typhimurium (one or more of the five standard strains: TA98, TA100, TA1535, TA1537, and TA1538), Assay Type: Histidine reverse gene mutation, Ames assay, Assay Code: SALT, Evaluation Type: Evaluation A (Pre-1980).
Setting [2] is: Species/Cell Type: Drosophila melanogaster, Assay Type: Sex-linked recessive lethal gene mutation, Assay Code: SRLT, Evaluation Type: Evaluation A (Pre-1980).
The mark [3] stands for this setting: Species/Cell Type: Salmonella typhimurium (one or more of the five standard strains: TA98, TA100, TA1535, TA1537, and TA1538), Assay Type: Histidine reverse gene mutation, Ames assay, Assay Code: SAL+, Evaluation Type: Evaluation A (Pre-1980).
[4] abbreviates: Species/Cell Type: Bacillus subtilis (H17 vs M45), Assay Type: Rec-assay, spot test, DNA effects (bacterial DNA repair), Assay Code: REWT, Evaluation Type: Evaluation A (Pre-1980).
[5] abbreviates: Species/Cell Type: Drosophila melanogaster, Assay Type: Sex-linked recessive lethal gene mutation, Assay Code: SRL-, Evaluation Type: Evaluation A (Pre-1980).
Setting [6] is: Species/Cell Type: Escherichia coli WP2 UVRA, Assay Type: Tryptophan reverse gene mutation, Assay Code: WPU-*, Activation: With metabolic activation, Evaluation Type: Evaluation A (Pre-1980).
[7] abbreviates: Species/Cell Type: Mammalian polychromatic erythrocytes, Assay Type: Micronucleus test, chromosome aberrations, Assay Code: MNTT, Evaluation Type: Evaluation B (Post-1980).

As to `O=Nc1c(O)c(S(=O)(=O)O)cc2cc(S(=O)(=O)O)ccc12`, the mutagenic call (Species/Cell Type: Glycine max (soybean), Assay Type: Gene mutation, Assay Code: GLM-, Evaluation Type: Evaluation A (Pre-1980)) was “inactive; negative”. As to `Clc1c(N2CC2)nc(N2CC2)nc1N1CC1`, under “Species/Cell Type: Aspergillus nidulans, Assay Type: Reverse gene mutation, Assay Code: ASR+, Evaluation Type: Evaluation A (Pre-1980)”, the mutagenic call was “active; positive”. As to `CC(=O)Nc1ccc(CCc2ccccc2)cc1`, the mutagenic call under setting [1] is “no conclusion”. As for `OCC(c1ccc(Cl)cc1)c1ccc(Cl)cc1`, under setting [2], the mutagenic call is on record as “no conclusion”.

For `COc1cc(NNc2ccccc2)ccc1N=O`, under setting [3], the mutagenic call is “active; positive”.

In the case of `Nc1ccc2cc3ccccc3nc2c1`, for the setting “Species/Cell Type: Mouse (BALB/c-3T3) cells, Assay Type: Cell transformation, Assay Code: CTB-, Evaluation Type: Evaluation A (Pre-1980)”, the mutagenic call is “inactive; negative”. On to `CC1CCCCC1NC(=O)Nc1ccccc1` (stereo unspecified), for which the mutagenic call under setting [4] was “no conclusion”; the mutagenic call under setting [5] is “inactive; negative”; the mutagenic call under setting [6] is “inactive; negative”; the mutagenic call (Species/Cell Type: Escherichia coli polA (W3119 vs P3478), Assay Type: Rec-assay, DNA effects (bacterial DNA repair), Assay Code: RE1T, Evaluation Type: Evaluation A (Pre-1980)) is reported as “no conclusion”; the mutagenic call (Species/Cell Type: Human diploid fibroblasts, Assay Type: Unscheduled DNA synthesis (UDS) in vitro, DNA effects, Assay Code: UDH-, Evaluation Type: Evaluation A (Pre-1980)) was “inactive; negative”; the mutagenic call (Species/Cell Type: Saccharomyces cerevisiae, Assay Type: Mitotic recombination or gene conversion, Assay Code: YEH-, Evaluation Type: Evaluation A (Pre-1980)) was “inactive; negative”. Further, the mutagenic call (Species/Cell Type: Salmonella typhimurium (one or more of the five standard strains: TA98, TA100, TA1535, TA1537, and TA1538), Assay Type: Histidine reverse gene mutation, Ames assay, Assay Code: SAL-, Evaluation Type: Evaluation A (Pre-1980)) was “inactive; negative”.

As for `O=c1[nH]c(=O)n([C@H]2C[C@H](O)[C@@H](CO)O2)cc1/C=C/I`, for the setting “Species/Cell Type: Human, Assay Type: Sister-chromatid exchange (SCE) in vitro, Assay Code: SC1+D, Dose Response: With dose response, Evaluation Type: Evaluation B (Post-1980)”, the mutagenic call is “active; positive”. Take `O=C1C=Cc2ccc3c4c(ccc1c24)C(=O)c1ccccc1-3`: the mutagenic call reads like this: (Species/Cell Type: Chinese hamster lung (V79) cells, Assay Type: Forward gene mutation at the HPRT or ouabain locus, Assay Code: V79+, Evaluation Type: Evaluation A (Pre-1980)) “active; positive”; under setting [1], “no conclusion”. The call (Species/Cell Type: Nonhuman, Assay Code: CCGT, Evaluation Type: Evaluation A (Pre-1980)) was “no conclusion”. As to `C[CH2][Hg][Cl]`, the mutagenic call under setting [7] was “no conclusion”. As to `O=C(O)/C=C/c1ccc(O)c(O)c1`, the mutagenic call under setting [7] is “no conclusion”. Regarding `O=C(c1ccc2c(c1)OCO2)C1CO1` (stereo unspecified), the mutagenic call under setting [3] was “active; positive”. On to `CCOP(=S)(NC(C)C)Oc1ccccc1C(=O)OC(C)C` (stereo unspecified), for which the mutagenic call (Species/Cell Type: Nonhuman, Assay Type: Sister-chromatid exchange (SCE) in vitro, Assay Code: SC2-, Evaluation Type: Evaluation B (Post-1980)) was “inactive; negative”. For `CCN(CC)CCn1nc2c3c(c(CO)ccc31)Sc1cc(Cl)ccc1-2`, the mutagenic call is, setting by setting: under setting [5], “inactive; negative”; (Species/Cell Type: Fischer rat embryo (RLV/1706) cells, Assay Type: Cell transformation, viral enhanced, Assay Code: CTR-, Evaluation Type: Evaluation A (Pre-1980)) “inactive; negative”; (Species/Cell Type: Mouse lymphoma (L5178Y) cells, Assay Type: Forward gene mutation at the thymidine kinase (TK) locus, chromosome aberrations, Assay Code: L51+, Evaluation Type: Evaluation A (Pre-1980)) “active; positive”; (Species/Cell Type: Neurospora crassa, Assay Type: Forward gene mutation, Assay Code: NEF+, Evaluation Type: Evaluation A (Pre-1980)) “active; positive”; (Species/Cell Type: Saccharomyces cerevisiae, Assay Type: Reverse gene mutation, Assay Code: YER+, Evaluation Type: Evaluation A (Pre-1980)) “active; positive”; under setting [3], “active; positive”. For the same molecule, the mutagenic call is, setting by setting: (Species/Cell Type: Salmonella typhimurium, Assay Type: Forward and reverse gene mutation, body fluid assay, Assay Code: BFU+, Evaluation Type: Evaluation A (Pre-1980)) “active; positive”; (Species/Cell Type: Salmonella typhimurium, Assay Type: Forward and reverse gene mutation, host-mediated assay, Assay Code: HMA+, Evaluation Type: Evaluation A (Pre-1980)) “active; positive”.

Turning to `CN(C)Nc1nc(-c2ccc([N+](=O)[O-])o2)cs1`, the mutagenic call was “active; positive” (Species/Cell Type: Escherichia coli WP2, Assay Type: Tryptophan reverse gene mutation, Assay Code: WP2+, Evaluation Type: Evaluation A (Pre-1980)); “inactive; negative” (Species/Cell Type: Escherichia coli WP2 UVRA, Assay Type: Tryptophan reverse gene mutation, Assay Code: WPU-, Evaluation Type: Evaluation A (Pre-1980)); “active; positive” under setting [3]. Consider `c1nncnn1`, for which, under setting [4], the mutagenic call is “no conclusion”. For the molecule `Oc1ccc2ccccc2c1N=Nc1cc[c]([Hg+])cc1`, under setting [1], the mutagenic call is on record as “no conclusion”. `Nc1ncnc2c1ncn2[C@@H]1O[C@H](CO)[C@@H](O)[C@@H]1O`: for the setting “Species/Cell Type: Vicia faba, Assay Type: Chromosome aberrations, Assay Code: VIC+D, Dose Response: With dose response, Evaluation Type: Evaluation A (Pre-1980)”, the mutagenic call was “active; positive”. As for `Clc1cc2c(cc1Cl)Oc1cc(Cl)c(Cl)cc1O2`, the mutagenic call was “no conclusion” under setting [7]; “no conclusion” (Species/Cell Type: Nonhuman, Assay Type: Sister-chromatid exchange (SCE) in vivo, Assay Code: SC3T, Evaluation Type: Evaluation B (Post-1980)); “inactive; negative” (Species/Cell Type: Rodents, Sex: Male, Assay Type: Dominant lethal test, Assay Code: DLT-, Evaluation Type: Evaluation A (Pre-1980)). Moreover, the call (Species/Cell Type: Nonhuman, Assay Code: CCG+, Evaluation Type: Evaluation A (Pre-1980)) is “active; positive”. As for `O=C1Nc2ccc([N+](=O)[O-])cc2C1=O`, the mutagenic call under setting [3] is “active; positive”. Still for that read-out and setting: as for `CCOC(=O)N(CCO)N=O`, the entry is “active; positive”. Turning to `C/C(=C(\CCOC(=O)c1ccccc1)SC(=O)c1ccccc1)N(C=O)Cc1cnc(C)nc1N`, the mutagenic call reads like this: (Species/Cell Type: Bacillus subtilis (H17 vs M45), Assay Type: Rec-assay, spot test, DNA effects (bacterial DNA repair), Assay Code: REW-, Evaluation Type: Evaluation A (Pre-1980)) “inactive; negative”; (Species/Cell Type: Escherichia coli WP2, Assay Type: Tryptophan reverse gene mutation, Assay Code: WP2-*, Activation: With metabolic activation, Evaluation Type: Evaluation A (Pre-1980)) “inactive; negative”; under setting [6], “inactive; negative”. Consider `Cc1ccc2ccc3c4ccccc4c(C)c4ccc1c2c43`, for which the mutagenic call (Species/Cell Type: Drosophila melanogaster, Assay Type: Sex-linked recessive lethal gene mutation, Assay Code: SRL+, Evaluation Type: Evaluation A (Pre-1980)) was “active; positive”.

Regarding `CC(=O)O/C=C/Cc1cccc2c1OCO2`, the mutagenic call under setting [1] is recorded as “no conclusion”. Consider `CN(C)Cc1cc(Br)ccc1OCC(=O)N/N=C/c1ccccc1O`, for which the mutagenic call (Species/Cell Type: Saccharomyces cerevisiae, Assay Type: Reverse gene mutation, Assay Code: YERT, Evaluation Type: Evaluation A (Pre-1980)) is recorded as “no conclusion”. Consider `C=COC(N)=O`, for which the mutagenic call is “active; positive” (Species/Cell Type: Human lymphocytes, Assay Type: Sister-chromatid exchange (SCE) in vitro, Assay Code: SCL+, Evaluation Type: Evaluation B (Post-1980)); “active; positive” (Species/Cell Type: Human, Assay Type: Sister-chromatid exchange (SCE) in vitro, Assay Code: SC1+, Evaluation Type: Evaluation B (Post-1980)); “active; positive” (Species/Cell Type: Nonhuman, Assay Type: Sister-chromatid exchange (SCE) in vitro, Assay Code: SC2+D, Dose Response: With dose response, Evaluation Type: Evaluation B (Post-1980)); “active; positive” (Species/Cell Type: Nonhuman, Assay Type: Sister-chromatid exchange (SCE) in vivo, Assay Code: SC3+D, Dose Response: With dose response, Evaluation Type: Evaluation B (Post-1980)).

On to `CC(=O)Nc1nc(-c2cc([N+](=O)[O-])cs2)cs1`, for which, under setting [3], the mutagenic call was “active; positive”. For the molecule `CCC(CC)c1cccc(OC(=O)N(C)N=O)c1`, the mutagenic call under setting [3] was “active; positive”.

`Nc1nc(=O)n([C@H]2C[C@H](O)[C@@H](CO)O2)cc1Br`: the mutagenic call by setting is: (Species/Cell Type: Arabidopsis species, Assay Type: Gene mutation, Assay Code: ARM+, Evaluation Type: Evaluation A (Pre-1980)) “active; positive”; under setting [2], “no conclusion”; (Species/Cell Type: Human lymphocytes, Assay Type: Sister-chromatid exchange (SCE) in vitro, Assay Code: SCLT, Evaluation Type: Evaluation B (Post-1980)) “no conclusion”; (Species/Cell Type: Human, Assay Type: Sister-chromatid exchange (SCE) in vitro, Assay Code: SC1T, Evaluation Type: Evaluation B (Post-1980)) “no conclusion”; (Species/Cell Type: Syrian hamster embryo (SA7/SHE) cells, Assay Type: Cell transformation, viral enhanced, Assay Code: CT7+, Evaluation Type: Evaluation A (Pre-1980)) “active; positive”. On to `O=Nc1ccc2ccc3cccc4ccc1c2c34`, for which, where the note is “Species/Cell Type: Chinese hamster ovary (CHO) cells, Assay Type: Forward gene mutation at the HPRT locus, Assay Code: CHO+, Evaluation Type: Evaluation B (Post-1980)”, the mutagenic call was “active; positive”. Turning to `Oc1ccc(Cl)cc1Cc1cc(Cl)ccc1O`, under setting [7], the mutagenic call is recorded as “no conclusion”. For `Cc1ccc2ccccc2n1`, the mutagenic call (Species/Cell Type: Salmonella typhimurium (one or more of the five standard strains: TA98, TA100, TA1535, TA1537, and TA1538), Assay Type: Histidine reverse gene mutation, Ames assay, Assay Code: SAL+*, Activation: With metabolic activation, Evaluation Type: Evaluation A (Pre-1980)) was “active; positive”.
